According to PubChem BioAssay AID2060607 (Molecular Pharmacology Branch, DTP, NCI, 2025):

Tested on: 876862-298-R-J1-PDC complex spheroids, viability % test/control
Assay: Anticancer human tumor 876862-298-R-J1-PDC patient-derived endometrial carcinoma cell line growth inhibition [CLK]
Conditions: for IC50: curve of first compound; for viability, T/C: stronger effect = lower value
In short: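 Multi-cell-type spheroids combined patient-derived tumor cells with HUVEC endothelial cells and human mesenchymal stem cells. Paired agents were dosed in half-log steps down from about clinical Cmax, or from 10 microM where Cmax was unknown.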

[1] = second compound 0.0316 µM, first compound 0.00949 µM
[2] = second compound 0.0316 µM, first compound 0.03 µM
[3] = second compound 0.0316 µM, first compound 0.0949 µM
[4] = second compound 0.0316 µM, first compound 0.3 µM
[5] = second compound 0.1 µM, first compound 0.00949 µM
[6] = second compound 0.1 µM, first compound 0.03 µM
[7] = second compound 0.1 µM, first compound 0.0949 µM
[8] = second compound 0.1 µM, first compound 0.3 µM
[9] = second compound 0.316 µM, first compound 0.00949 µM
[10] = second compound 0.316 µM, first compound 0.03 µM
[11] = second compound 0.316 µM, first compound 0.0949 µM
[12] = second compound 0.316 µM, first compound 0.3 µM
[13] = second compound 1 µM, first compound 0.00949 µM
[14] = second compound 1 µM, first compound 0.03 µM
[15] = second compound 1 µM, first compound 0.0949 µM
[16] = second compound 1 µM, first compound 0.3 µM
[17] = second compound 3.16 µM, first compound 0.00949 µM
[18] = second compound 3.16 µM, first compound 0.03 µM
[19] = second compound 3.16 µM, first compound 0.0949 µM
[20] = second compound 3.16 µM, first compound 0.3 µM
[21] = second compound 10 µM, first compound 0.00949 µM
[22] = second compound 10 µM, first compound 0.03 µM
[23] = second compound 10 µM, first compound 0.0949 µM
[24] = second compound 10 µM, first compound 0.3 µM
[25] = second compound 0.0316 µM, first compound 0.0316 µM
[26] = second compound 0.0316 µM, first compound 0.1 µM
[27] = second compound 0.0316 µM, first compound 0.316 µM
[28] = second compound 0.0316 µM, first compound 1 µM
[29] = second compound 0.0316 µM, first compound 3.16 µM
[30] = second compound 0.0316 µM, first compound 10 µM
[31] = second compound 0.1 µM, first compound 0.0316 µM
[32] = second compound 0.1 µM, first compound 0.1 µM
[33] = second compound 0.1 µM, first compound 0.316 µM
[34] = second compound 0.1 µM, first compound 1 µM
[35] = second compound 0.1 µM, first compound 3.16 µM
[36] = second compound 0.1 µM, first compound 10 µM
[37] = second compound 0.316 µM, first compound 0.0316 µM
[38] = second compound 0.316 µM, first compound 0.1 µM
[39] = second compound 0.316 µM, first compound 0.316 µM
[40] = second compound 0.316 µM, first compound 1 µM
[41] = second compound 0.316 µM, first compound 3.16 µM
[42] = second compound 0.316 µM, first compound 10 µM
[43] = second compound 1 µM, first compound 0.0316 µM
[44] = second compound 1 µM, first compound 0.1 µM
[45] = second compound 1 µM, first compound 0.316 µM
[46] = second compound 1 µM, first compound 1 µM
[47] = second compound 1 µM, first compound 3.16 µM
[48] = second compound 1 µM, first compound 10 µM
[49] = second compound 3.16 µM, first compound 0.0316 µM
[50] = second compound 3.16 µM, first compound 0.1 µM
[51] = second compound 3.16 µM, first compound 0.316 µM
[52] = second compound 3.16 µM, first compound 1 µM
[53] = second compound 3.16 µM, first compound 3.16 µM
[54] = second compound 3.16 µM, first compound 10 µM
[55] = second compound 10 µM, first compound 0.0316 µM
[56] = second compound 10 µM, first compound 0.1 µM
[57] = second compound 10 µM, first compound 0.316 µM
[58] = second compound 10 µM, first compound 1 µM
[59] = second compound 10 µM, first compound 3.16 µM
[60] = second compound 10 µM, first compound 10 µM
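Note: spheroids exposed to drugs for 7 days before readout.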
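Throughout, for viability, T/C: 100% = DMSO vehicle control wells.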

C=CC(=O)Nc1cc(Nc2nccc(-c3cn(C)c4ccccc34)n2)c(OC)cc1N(C)CCN(C)C + CNC(=O)c1ccc(Nc2nc(OC3CCCC3)c3c(-c4ccc5nc(C)oc5c4)c[nH]c3n2)c(OC)c1
IC50 (second compound 0.0316 µM): 170 nM
IC50 (second compound 0.1 µM): < 0.949 nM
IC50 (second compound 0.316 µM): < 0.949 nM
IC50 (second compound 1 µM): < 0.949 nM
IC50 (second compound 3.16 µM): < 0.949 nM
IC50 (second compound 10 µM): < 0.949 nM
viability, T/C (second compound 0.0316 µM, first compound 0.000949 µM): 74.5%
viability, T/C (second compound 0.0316 µM, first compound 0.003 µM): 79.6%
viability, T/C [1]: 69.1%
viability, T/C [2]: 64%
viability, T/C [3]: 53.5%
viability, T/C [4]: 46.6%
viability, T/C (second compound 0.1 µM, first compound 0.000949 µM): 49.2%
viability, T/C (second compound 0.1 µM, first compound 0.003 µM): 46%
viability, T/C [5]: 44.2%
viability, T/C [6]: 44.1%
viability, T/C [7]: 41.7%
viability, T/C [8]: 31.3%
viability, T/C (second compound 0.316 µM, first compound 0.000949 µM): 46.4%
viability, T/C (second compound 0.316 µM, first compound 0.003 µM): 41.3%
viability, T/C [9]: 42.3%
viability, T/C [10]: 41.1%
viability, T/C [11]: 34%
viability, T/C [12]: 27.8%
viability, T/C (second compound 1 µM, first compound 0.000949 µM): 36.5%
viability, T/C (second compound 1 µM, first compound 0.003 µM): 30.8%
viability, T/C [13]: 32.7%
viability, T/C [14]: 26.9%
viability, T/C [15]: 30.2%
viability, T/C [16]: 27.4%
viability, T/C (second compound 3.16 µM, first compound 0.000949 µM): 24.1%
viability, T/C (second compound 3.16 µM, first compound 0.003 µM): 27.6%
viability, T/C [17]: 19.2%
viability, T/C [18]: 20.9%
viability, T/C [19]: 20%
viability, T/C [20]: 19%
viability, T/C (second compound 10 µM, first compound 0.000949 µM): 23.1%
viability, T/C (second compound 10 µM, first compound 0.003 µM): 23.4%
viability, T/C [21]: 21.7%
viability, T/C [22]: 19.7%
viability, T/C [23]: 17.9%
viability, T/C [24]: 17.4%

CC1(C)CCC(CN2CCN(c3ccc(C(=O)NS(=O)(=O)c4ccc(NCC5CCOCC5)c([N+](=O)[O-])c4)c(Oc4cnc5[nH]ccc5c4)c3)CC2)=C(c2ccc(Cl)cc2)C1 + CNC(=O)c1ccc(Nc2nc(OC3CCCC3)c3c(-c4ccc5nc(C)oc5c4)c[nH]c3n2)c(OC)c1
IC50 (second compound 0.0316 µM): 5400 nM
IC50 (second compound 0.1 µM): 473 nM
IC50 (second compound 0.316 µM): < 31.6 nM
IC50 (second compound 1 µM): < 31.6 nM
IC50 (second compound 3.16 µM): < 31.6 nM
IC50 (second compound 10 µM): < 31.6 nM
viability, T/C [25]: 69.5%
viability, T/C [26]: 88.6%
viability, T/C [27]: 83%
viability, T/C [28]: 90.6%
viability, T/C [29]: 86.1%
viability, T/C [30]: 11.2%
viability, T/C [31]: 48.2%
viability, T/C [32]: 52.2%
viability, T/C [33]: 52.3%
viability, T/C [34]: 49.2%
viability, T/C [35]: 39.2%
viability, T/C [36]: 11.8%
viability, T/C [37]: 45.1%
viability, T/C [38]: 39.5%
viability, T/C [39]: 47.9%
viability, T/C [40]: 46.1%
viability, T/C [41]: 35.9%
viability, T/C [42]: 9.32%
viability, T/C [43]: 37.7%
viability, T/C [44]: 34.4%
viability, T/C [45]: 32.3%
viability, T/C [46]: 33.2%
viability, T/C [47]: 26.4%
viability, T/C [48]: 9.54%
viability, T/C [49]: 23.6%
viability, T/C [50]: 23.8%
viability, T/C [51]: 25.4%
viability, T/C [52]: 21.6%
viability, T/C [53]: 19.4%
viability, T/C [54]: 5.35%
viability, T/C [55]: 19.9%
viability, T/C [56]: 19.8%
viability, T/C [57]: 17.6%
viability, T/C [58]: 20.3%
viability, T/C [59]: 14.9%
viability, T/C [60]: 5.66%

NC(=O)C(=Cn1cnc(-c2cc(C(F)(F)F)cc(C(F)(F)F)c2)n1)c1cncnc1 + CNC(=O)c1ccc(Nc2nc(OC3CCCC3)c3c(-c4ccc5nc(C)oc5c4)c[nH]c3n2)c(OC)c1
IC50 (second compound 0.0316 µM): 19.4 nM
IC50 (second compound 0.1 µM): < 9.49 nM
IC50 (second compound 0.316 µM): < 9.49 nM
IC50 (second compound 1 µM): < 9.49 nM
IC50 (second compound 3.16 µM): < 9.49 nM
IC50 (second compound 10 µM): < 9.49 nM
viability, T/C [1]: 52.2%
viability, T/C [2]: 49.7%
viability, T/C [3]: 35.9%
viability, T/C [4]: 25%
viability, T/C (second compound 0.0316 µM, first compound 0.949 µM): 9.87%
viability, T/C (second compound 0.0316 µM, first compound 3 µM): 8.36%
viability, T/C [5]: 37.7%
viability, T/C [6]: 34.3%
viability, T/C [7]: 27.8%
viability, T/C [8]: 19.4%
viability, T/C (second compound 0.1 µM, first compound 0.949 µM): 8.19%
viability, T/C (second compound 0.1 µM, first compound 3 µM): 5.57%
viability, T/C [9]: 35.7%
viability, T/C [10]: 24.1%
viability, T/C [11]: 21.8%
viability, T/C [12]: 14.3%
viability, T/C (second compound 0.316 µM, first compound 0.949 µM): 4.08%
viability, T/C (second compound 0.316 µM, first compound 3 µM): 1.39%
viability, T/C [13]: 24.4%
viability, T/C [14]: 21.2%
viability, T/C [15]: 15.8%
viability, T/C [16]: 6.44%
viability, T/C (second compound 1 µM, first compound 0.949 µM): 2.52%
viability, T/C (second compound 1 µM, first compound 3 µM): 1.7%
viability, T/C [17]: 19.2%
viability, T/C [18]: 13.5%
viability, T/C [19]: 6.99%
viability, T/C [20]: 2.31%
viability, T/C (second compound 3.16 µM, first compound 0.949 µM): 2.53%
viability, T/C (second compound 3.16 µM, first compound 3 µM): 1.98%
viability, T/C [21]: 17.8%
viability, T/C [22]: 13.8%
viability, T/C [23]: 5.85%
viability, T/C [24]: 1.75%
viability, T/C (second compound 10 µM, first compound 0.949 µM): 1.16%
viability, T/C (second compound 10 µM, first compound 3 µM): 0.58%

Nc1ccccc1NC(=O)c1ccc(CNC(=O)OCc2cccnc2)cc1 + CNC(=O)c1ccc(Nc2nc(OC3CCCC3)c3c(-c4ccc5nc(C)oc5c4)c[nH]c3n2)c(OC)c1
IC50 (second compound 0.0316 µM): 3670 nM
IC50 (second compound 0.1 µM): 1070 nM
IC50 (second compound 0.316 µM): < 31.6 nM
IC50 (second compound 1 µM): < 31.6 nM
IC50 (second compound 3.16 µM): < 31.6 nM
IC50 (second compound 10 µM): < 31.6 nM
viability, T/C [25]: 71.4%
viability, T/C [26]: 88.4%
viability, T/C [27]: 82.8%
viability, T/C [28]: 80.6%
viability, T/C [29]: 53.1%
viability, T/C [30]: 29.2%
viability, T/C [31]: 46.3%
viability, T/C [32]: 45.3%
viability, T/C [33]: 62.3%
viability, T/C [34]: 50.2%
viability, T/C [35]: 39.4%
viability, T/C [36]: 24.9%
viability, T/C [37]: 41.2%
viability, T/C [38]: 43.8%
viability, T/C [39]: 44.7%
viability, T/C [40]: 40.9%
viability, T/C [41]: 27.3%
viability, T/C [42]: 16.9%
viability, T/C [43]: 33.4%
viability, T/C [44]: 31.7%
viability, T/C [45]: 32.5%
viability, T/C [46]: 27.1%
viability, T/C [47]: 15.7%
viability, T/C [48]: 9.26%
viability, T/C [49]: 25%
viability, T/C [50]: 22.5%
viability, T/C [51]: 22.5%
viability, T/C [52]: 16.1%
viability, T/C [53]: 12.1%
viability, T/C [54]: 2.17%
viability, T/C [55]: 21%
viability, T/C [56]: 22.2%
viability, T/C [57]: 16.6%
viability, T/C [58]: 15.7%
viability, T/C [59]: 10%
viability, T/C [60]: 0.74%
